Earlier results, collected in patent EP0706556B1, “CLEANING AND DI[…]” (Henkel-Ecolab GmbH & Co. OHG, priority 1993, dated 1995).

C=O [Formaldehyd]
Konzentration, bei der Augenreizungen auftreten können (exposed persons, certain individuals): ≥ 0,4 ppm
Konzentration, die Lungenödeme verursacht (inhalation, humans): 50 ppm
Konzentration, die Tränenfluß verursacht (inhalation, humans): ≥ 0,1 ppm
